Patent publication US6365572B1, “Low molecular weight peptide derivatives as inhibitors of the laminin/nidogen interaction” (Aventis Pharma Deutschland GmbH, priority 1999, dated 2002)
Where two headings read alike, the source gives them in different places. Starred links: 1 amine or outer side, 2 acyl side, 3 side chain; linkers in the order of their positions; H or OH if unused. Non-standard residues stand in square brackets, D forms with d. Residues, ends and D or L forms follow the SMILES beside them. No end group written: not given here. ξ: configuration not given here. *: point of attachment. Bip = N[C@@H](Cc1ccc(-c2ccccc2)cc1)C(=O)O; 2Nal = N[C@@H](Cc1ccc2ccccc2c1)C(=O)O; NH(3-hydroxypropyl) = OCCCN*; Suc = O=C(CCC(=O)[*:2])[*:1]; ξN = NC(=O)CC(N)C(=O)O; Bn = c1ccc(C*)cc1

Assays:
[1] = molecular target: T1, laminin/nidogen interaction (laminin P1, recombinantly produced human nidogen) (Homo sapiens, UniProt P14543); assay: HTS screening assay (time-resolved fluorescence), inhibition of laminin/nidogen binding
T1 construct: made in house; host or cells: HEK-293
T1 sequence (P14543 29-1247): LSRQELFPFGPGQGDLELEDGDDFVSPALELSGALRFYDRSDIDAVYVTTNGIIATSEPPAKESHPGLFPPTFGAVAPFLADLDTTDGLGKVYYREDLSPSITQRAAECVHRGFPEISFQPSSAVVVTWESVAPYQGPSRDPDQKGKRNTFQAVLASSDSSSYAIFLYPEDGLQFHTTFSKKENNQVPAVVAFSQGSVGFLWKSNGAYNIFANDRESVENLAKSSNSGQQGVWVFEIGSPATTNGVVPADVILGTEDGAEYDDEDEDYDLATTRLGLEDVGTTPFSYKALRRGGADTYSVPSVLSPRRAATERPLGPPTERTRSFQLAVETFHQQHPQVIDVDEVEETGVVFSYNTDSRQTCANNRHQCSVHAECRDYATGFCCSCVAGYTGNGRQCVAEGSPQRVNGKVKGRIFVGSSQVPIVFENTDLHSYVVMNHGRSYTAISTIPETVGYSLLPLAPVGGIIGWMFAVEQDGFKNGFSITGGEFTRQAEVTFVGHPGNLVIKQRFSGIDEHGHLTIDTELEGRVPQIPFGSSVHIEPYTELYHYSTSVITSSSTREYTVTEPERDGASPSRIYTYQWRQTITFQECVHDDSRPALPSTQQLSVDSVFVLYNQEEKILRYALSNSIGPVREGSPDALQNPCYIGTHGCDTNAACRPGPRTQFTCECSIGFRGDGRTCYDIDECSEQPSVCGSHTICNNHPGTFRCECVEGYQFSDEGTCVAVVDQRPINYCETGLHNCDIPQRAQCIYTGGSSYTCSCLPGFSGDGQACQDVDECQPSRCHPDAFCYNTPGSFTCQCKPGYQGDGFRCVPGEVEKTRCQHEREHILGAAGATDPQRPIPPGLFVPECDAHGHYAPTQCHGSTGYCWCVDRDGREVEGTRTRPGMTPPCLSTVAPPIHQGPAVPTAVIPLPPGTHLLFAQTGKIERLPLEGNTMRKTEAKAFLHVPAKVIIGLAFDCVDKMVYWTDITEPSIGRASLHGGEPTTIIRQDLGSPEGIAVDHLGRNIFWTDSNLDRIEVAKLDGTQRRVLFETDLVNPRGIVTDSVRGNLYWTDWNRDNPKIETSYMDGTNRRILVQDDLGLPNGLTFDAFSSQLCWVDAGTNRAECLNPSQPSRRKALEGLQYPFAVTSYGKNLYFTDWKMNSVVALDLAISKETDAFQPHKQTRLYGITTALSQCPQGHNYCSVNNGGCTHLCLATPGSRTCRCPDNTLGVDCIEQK
Experimental: 5) The compound stocks were preincubated with nidogen (10 μl compound stock to 90 μl nidogen solution) and the assay was performed as described in the attached protocol, yielding a final screening concentration of 2.7 μM per compound. The isolation of laminin P1 from human placenta, human nidogen from transfected HEK-293 cells and mouse laminin γ1III 3-5 from HEK-293 cells is described in WO 98/31709. 3.1.1. HTS screening assay (highly sensitive assay variant): Time-Resolved Fluorescence Assay Coating of test tubes Microtiter plates (for example FluoroNunc®) were coated with 75 μl of a 0.1 μg/ml solution of laminin P1 (in 0.159 g of Na2CO3, 0.293 g of NaHCO3, 0.02 g of NaN3/liter, pH 9.2) at room temperature for 1 hour. The solution was then tipped off, and free binding sites were blocked by incubation with 0.5% BSA (in 7.9 g of NaCl, 1.2 g of Na2HPO4, 0.31 g of KCl, 0.23 g of NaH2PO4, 0.04% Tween 20/liter, pH 7.2) at room temperature for 0.5 hour. Completion of the blocking reaction was followed by decantation of the solution and washing once with 250 μl of washing buffer (PBS/0.04% Tween). Sequential inhibition In parallel with the coating, a preincubation of 85-100 μl of a 0.25 nM nidogen solution (recombinantly produced human nidogen) with inhibitor or standard was carried out in a separate reaction vessel (1 hour at room temperature in 7.9 g of NaCl, 1.2 g of Na2HPO4, 0.31 g of KCl, 0.23 g of NaH2PO4, 0.04% Tween 20/liter, 0.5% BSA, pH 7.2). 75 μl of the preincubation (nidogen+inhibitor or standard) were transferred into the coated wells of the microtiter plate and incubated at room temperature for 1 hour. This was followed by washing twice with PBS/0.04% Tween. Detection of the bound nidogen took place by incubation (at room temperature) for 1 hour with 75 μl of a specific antibody preparation obtained from yolks of eggs from a chicken immunized with human nidogen. The IgY fraction was used in a dilution of 1:500 in PBS/0.04% Tween. The complex of nidogen and specifically bound antibodies was, after washing twice with PBS/0.04% Tween, detected by adding anti-chicken IgY-biotin (75 μl of a 1:2500 dilution; Promega, Madison, Wis. 53711, 608-274-4330). An incubation time of 1 hour and washing twice with PBS/0.04% Tween were followed for this purpose by incubation with streptavidin-europium (Wallac; 1 hour at room temperature) and washing twice with PBS/0.04% Tween. It was finally possible, after adding 100 μl of enhancement solution (Wallac) and shaking for 5 minutes, to measure a fluorescence signal in a Victor multilabel counter using the europium protocol. The relation between the amount, of bound nidogen in the solutions with inhibitor and that of nidogen without added inhibitor was found.

[2] = molecular target: T2, laminin/nidogen association (Homo sapiens, UniProt P14543); assay: Three-day equilibrium assay, inhibition of laminin/nidogen association; assay type: binding; conditions: Table 2, 3-day equilibrium assay variant
T2 sequence (P14543 29-1247): T1 sequence (P14543 29-1247)
Source text: 3.1.2. Three-day equilibrium assay Selected inhibitors were investigated for inhibitory activity in this assay variant. The assay is described in U.S. Pat. No. 5,493,008. The following table compares IC50 values of selected substances with the results of the HTS screening assay. It is clear that the 3-day assay gives slightly lower measured values and, as expected, is more sensitive than the screening assay. However, it is also clear from the comparison that inhibitory structures can be identified reliably with the screening assay developed by us.

[3] = Table 2, HTS assay variant, read-out: IC50, HTS assay
[4] = results table 1.3, synthesized compounds 1 to 43, read-out: IC50

Compound | IC50 [1, 3] [nM] | IC50 [1, 4] [nM] | IC50 [2] [nM]
CC(C)[C@H](NC(=O)[C@H](CO)NC(=O)[C@H](CC(N)=O)NC(=O)[C@H](Cc1ccc2ccccc2c1)NC(=O)CCC(=O)O)C(=O)NCC(=O)NCCCO [Compound 24, Succinyl-L-3-(2-naphthyl)alanyl-L-asparaginyl-L-seryl-L-valyl-glycine-3-hydroxypropylamide] (Suc-[2Nal]NSVG-{NH(3-hydroxypropyl)}) | 360 | 390 | 90
CC(C)[C@H](NC(=O)[C@H](C)NC(=O)[C@H](CC(N)=O)NC(=O)[C@H](Cc1ccc2ccccc2c1)NC(=O)CCC(=O)O)C(N)=O [Compound 31, Succinyl-L-3-(2-naphthyl)alanyl-L-asparaginyl-L-alanyl-L-valine-amide] (Suc-[2Nal]NAV-NH2) | 190 | 190 | 85
CC(C)[C@H](NC(=O)CNC(=O)[C@H](CC(N)=O)NC(=O)[C@H](Cc1ccc2ccccc2c1)NC(=O)CCC(=O)O)C(N)=O [Compound 33, Succinyl-L-3-(2-naphthyl)alanyl-L-asparaginyl-glycinyl-L-valine-amide] (Suc-[2Nal]NGV-NH2) | – | 720 | –
CC(C)[C@H](NC(=O)[C@H](C)NC(=O)[C@H](CC(N)=O)NC(=O)[C@H](Cc1ccc(OCc2ccccc2)cc1)NC(=O)CCC(=O)O)C(N)=O [Compound 35, Succinyl-L-O-benzyl-tyrosyl-L-asparaginyl-L-alanyl-L-valine-amide] (Suc-Y(Bn)NAV-NH2) | – | 5020 | –
CC(C)[C@H](NC(=O)[C@H](C)NC(=O)[C@H](CC(N)=O)NC(=O)[C@H](Cc1ccc(-c2ccccc2)cc1)NC(=O)CCC(=O)O)C(N)=O [Compound 36, Succinyl-L-3-(4-biphenyl)alanyl-L-asparaginyl-L-alanyl-L-valine-amide] (Suc-[Bip]NAV-NH2) | – | 2830 | –
CC(C)[C@H](NC(=O)[C@H](C)NC(=O)[C@H](CC(N)=O)NC(=O)[C@H](Cc1ccc2ccccc2c1)NC(=O)CCC(=O)O)C(=O)O [Compound 37, Succinyl-L-3-(2-Naphthyl)alanyl-L-asparaginyl-L-alanyl-L-valine] (Suc-[2Nal]NAV-OH) | – | 830 | –
CC(C)[C@@H](CO)NC(=O)[C@H](C)NC(=O)[C@H](CC(N)=O)NC(=O)[C@H](Cc1ccc2ccccc2c1)NC(=O)CCC(=O)O [Compound 38, Succinyl-L-3-(2-Naphthyl)alanyl-L-asparaginyl-L-alaninyl-L-valinol] | – | 260 | –
CC(C)C(NC(=O)[C@H](C)NC(=O)[C@H](CC(N)=O)NC(=O)[C@H](Cc1ccc2ccccc2c1)NC(=O)CCC(=O)O)C(C)C [Compound 39, Succinyl-L-3-(2-Naphthyl)alanyl-L-asparaginyl-L-alanine-2,4-dimethylpentylamide] | – | 1500 | –
C[C@H](NC(=O)[C@H](CC(N)=O)NC(=O)[C@H](Cc1ccc2ccccc2c1)NC(=O)CCC(=O)O)C(=O)NCC(C)(C)C [Compound 40, Succinyl-L-3-(2-Naphthyl)alanyl-L-asparaginyl-L-alanine-neopentylamide] | – | 1160 | –
C[C@H](NC(=O)[C@H](CC(N)=O)NC(=O)[C@H](Cc1ccc2ccccc2c1)NC(=O)CCC(=O)O)C(=O)N1CCCC(C)(C)C1 [Compound 41, Succinyl-L-3-(2-Naphthyl)alanyl-L-asparaginyl-L-alanine-3,3-dimethylpiperidinylamide] | – | 8170 | –
CC(C)[C@H](NC(=O)[C@H](C)NC(=O)[C@H](CC(N)=O)NC(=O)[C@H](Cc1ccc2ccccc2c1)NC(=O)CCC(=O)O)C(=O)N(C)C [Compound 42, Succinyl-L-3-(2-Naphthyl)alanyl-L-asparaginyl-L-alanyl-L-valine-dimethylamide] (Suc-[2Nal]NAV-NMe2) | – | 240 | –
CC[C@H](C)[C@H](NC(=O)C(N)CC(N)=O)C(=O)N[C@@H](CC(=O)O)C(=O)N1CCC[C@H]1C(=O)N[C@@H](CC(N)=O)C(=O)N[C@@H](C)C(=O)N[C@H](C(=O)O)C(C)C (stereo partly drawn) [NIDPNAV, Asn-lie-Asp-Pro-Asn-Ala-Val, reference compound] (H-[ξN]IDPNAV-OH) | 3900 | – | 1200
DPNAV [DPNAV, reference compound] | 7700 | – | 5000
